Data set [1] concerns HBsAg in HBV-infected PHH. Nature of the data set: Cryopreserved primary human hepatocytes (PHH) HBV infection assay, extracellular HBsAg (CLIA). Format: cell-based. The conditions noted are these: Hepatitis B virus, Hepatocyte, 216 h, read-out: HBsAg IC50, Cryopreserved PHH infected with HBV, 9 days post-compound treatment, extracellular HBsAg. A digest of the protocol: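 Cryopreserved PHH were infected with 5.8×10^6 HBV genome equivalents in medium with 4% PEG8000 and 1% DMSO. After 9 days of treatment, extracellular HBsAg was measured by CLIA, and IC50 was derived from a 4-parameter logistic fit.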

The subject of data set [2] is HBeAg (surrogate marker for cccDNA) in HepDES19 cells. Nature of the data set: Engineered HepDES19 primary screen assay (HBeAg ELISA). Format: cell-based, HBV. The settings on record: Hepatitis B virus, HepDES19, 120 h, read-out: IC50 (HBeAg level, HepDES19 primary screen assay), HepDES19 cells, 5 days compound incubation, HBeAg ELISA. In short, it runs like this: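 IC50 values come from 4-parameter logistic fits of HBeAg ELISA signal, the cccDNA surrogate, with CCK-8 run in parallel for viability. Compounds at half-log dilutions with 1% DMSO were applied for 5 days at 37 °C to HepDES19 cells previously cultured 8 days without Tet.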
A general note: In an ELISA, binding on a coated surface is turned into a signal by an enzyme label.

Data set [3] can be described thus: Human microsome stability assay. Format: in vitro ADME. The conditions noted are these: human liver microsomes, 1 μM test compound, 0.5 mg/mL microsomal protein, 37° C., pH 7.4, 0-30 minutes. In short, it runs like this:
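Parent compound remaining was measured by LC-MS/MS at 0, 3, 6, 9, 15 and 30 min, following ACN quench. Reactions held 1 μM compound and 0.5 mg/mL human liver microsomal protein in pH 7.4 phosphate buffer at 37 °C, started by NADPH regeneration (1 mM NADP, 1 mM MgCl2); controls lacked NADPH.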
(Microsomes from liver hold many membrane-bound enzymes, among them those of drug oxidation.)

Structures are written as SMILES.

Regarding `Cc1ccc(-c2cc(=O)c3cccc(Cl)c3o2)c(O[C@H]2C[C@H](C(=O)NS(C)(=O)=O)C2)c1` [Example B051-B, Trans-3-[2-(8-chloro-4-oxo-chromen-2-yl)-5-methyl-phenoxy]-N-methylsulfonyl-cyclobutanecarboxamide], the figures for the half-maximal inhibitory concentration (IC50) in data set [1] and in data set [2] were 5.3 µM and 9220 nM, respectively. Moreover, in data set [3], the “Clearance of Human microsome” value came to 6.97 mL/min/kg.

In the case of `Cc1ccc(-c2cc(=O)c3cccc(Cl)c3o2)c(O[C@H]2C[C@@H](C(=O)NS(=O)(=O)C3CC3)C2)c1` [Example B052-A, Cis-3-[2-(8-chloro-4-oxo-chromen-2-yl)-5-methyl-phenoxy]-N-cyclopropylsulfonyl-cyclobutanecarboxamide], the results for the IC50 in data set [1] and in data set [2] were 8.48 µM and 10700 nM, respectively. Moreover, the “Clearance of Human microsome” value in data set [3] is 6.15 mL/min/kg.

With `Cc1ccc(-c2cc(=O)c3cccc(Cl)c3o2)c(O[C@H]2C[C@H](C(=O)NS(=O)(=O)C3CC3)C2)c1` [Example B052-B, Trans-3-[2-(8-chloro-4-oxo-chromen-2-yl)-5-methyl-phenoxy]-N-cyclopropylsulfonyl-cyclobutanecarboxamide], the half-inhibitory concentration (IC50) was 7.98 µM in data set [1] and 16300 nM in data set [2]. The “Clearance of Human microsome” value in data set [3] turned out to be 6.15 mL/min/kg.

Turning to `O=C(O)C(O)COc1cc(C(F)(F)F)ccc1-c1cc(=O)c2cccc(Cl)c2o1` (stereo not drawn) [Example B073, 3-[2-(8-chloro-4-oxo-chromen-2-yl)-5-(trifluoromethyl)phenoxy]-2-hydroxy-propanoic acid], the results for the IC50 in data set [1] and in data set [2] were 5.97 µM and 1040 nM, respectively. The “Clearance of Human microsome” value in data set [3] amounted to 6.15 mL/min/kg.

As to `O=C(O)[C@@H]1C[C@@H](Oc2cc(C(F)(F)F)ccc2-c2cc(=O)c3cccc(Cl)c3o2)CN1S(=O)(=O)c1ccccc1` [Example B076, (2S,4R)-1-(benzenesulfonyl)-4-[2-(8-chloro-4-oxo-chromen-2-yl)-5-(trifluoromethyl)phenoxy]pyrrolidine-2-carboxylic acid], the IC50 in data set [1] was 1.31 µM; in data set [2], 111 nM. For the same compound, in data set [3], the “Clearance of Human microsome” value was determined as 6.15 mL/min/kg.

Regarding `O=C(O)[C@@H]1C[C@H](Oc2cc(Br)ccc2-c2cc(=O)c3cccc(Cl)c3o2)CN1S(=O)(=O)c1ccccc1` [Example B082], the IC50 in data set [1] was 4.8 µM; in data set [2], 1980 nM. Also, in data set [3], the “Clearance of Human microsome” value stood at 6.15 mL/min/kg.

As for `O=C(O)[C@@H]1C[C@H](Oc2cc(Br)ccc2-c2cc(=O)c3cccc(Cl)c3o2)CN1S(=O)(=O)C1CC1` [Example B083, (2S,4S)-4-[5-bromo-2-(8-chloro-4-oxo-chromen-2-yl)phenoxy]-1-cyclopropylsulfonyl-pyrrolidine-2-carboxylic acid], the IC50 in data set [1] stood at 3.24 µM; in data set [2] it was 704 nM. In addition, in data set [3], the “Clearance of Human microsome” value is on record as 6.15 mL/min/kg.

Turning to `Cc1ccc(-c2cc(=O)c3cccc(Cl)c3o2)c(OCCCOCC(=O)O)c1` [Example C002, 2-[3-[2-(8-chloro-4-oxo-chromen-2-yl)-5-methyl-phenoxy]propoxy]acetic acid], the half-inhibitory concentration (IC50) is 2.43 µM in data set [1] and 348 nM in data set [2]. The “Clearance of Human microsome” value in data set [3] is 6.15 mL/min/kg.

As for `O=C(O)COCCOc1cc(Br)ccc1-c1cc(=O)c2cccc(Cl)c2o1` [Example C006, 2-[2-[5-bromo-2-(8-chloro-4-oxo-chromen-2-yl)phenoxy]ethoxy]acetic acid], the IC50 in data set [1] is 3.74 µM; in data set [2], 1260 nM. In addition, the “Clearance of Human microsome” value in data set [3] amounted to 6.15 mL/min/kg.

Turning to `Cc1cc(-c2cc(=O)c3cccc(Cl)c3o2)c(OCCCOCC(=O)O)cc1Br` [Example C011, 2-[3-[5-bromo-2-(8-chloro-4-oxo-chromen-2-yl)-4-methyl-phenoxy]propoxy]acetic acid], the IC50 stood at 8.5 µM in data set [1] and 10600 nM in data set [2]. The “Clearance of Human microsome” value in data set [3] was 6.15 mL/min/kg.

As for `COc1cc(-c2cc(=O)c3cccc(Cl)c3o2)c(OCCCOCC(=O)O)cc1Br` [Example C013, 2-[3-[5-bromo-2-(8-chloro-4-oxo-chromen-2-yl)-4-methoxy-phenoxy]propoxy]acetic acid], the half-inhibitory concentration (IC50) in data set [1] amounted to 9.32 µM; in data set [2], 252 nM. For the same compound, the “Clearance of Human microsome” value in data set [3] was 6.15 mL/min/kg.

For `O=C(O)COCCCOc1cc(OC(F)(F)F)ccc1-c1cc(=O)c2cccc(Cl)c2o1` [Example C014, 2-[3-[2-(8-chloro-4-oxo-chromen-2-yl)-5-(trifluoromethoxy)phenoxy]propoxy]acetic acid], the half-maximal inhibitory concentration (IC50) came out at 7.8 µM in data set [1] and 2190 nM in data set [2]. Moreover, in data set [3], the “Clearance of Human microsome” value turned out to be 8.04 mL/min/kg.

As to `O=C(O)COCCCOc1cc2c(cc1-c1cc(=O)c3cccc(Cl)c3o1)OCO2` [Example C015, 2-[3-[[6-(8-chloro-4-oxo-chromen-2-yl)-1,3-benzodioxo1-5-yl]oxy]propoxy]acetic acid], the results for the concentration for half-maximal inhibition (IC50) in data set [1] and in data set [2] were 3.36 µM and 7870 nM, respectively. In addition, in data set [3], the “Clearance of Human microsome” value came to 6.15 mL/min/kg.

`COc1cc(-c2cc(=O)c3cccc(Cl)c3o2)c(OCCCOCC(=O)O)cc1Cl` [Example C016, 2-[3-[5-chloro-2-(8-chloro-4-oxo-chromen-2-yl)-4-methoxy-phenoxy]propoxy]acetic acid]: the IC50 came to 7.14 µM in data set [1] and 2460 nM in data set [2]. Also, the “Clearance of Human microsome” value in data set [3] came to 6.15 mL/min/kg.

With `Cc1ccc(-c2cc(=O)c3cccc(Br)c3o2)c(OCCCOCC(=O)O)c1` [Example C017, 2-[3-[2-(8-bromo-4-oxo-chromen-2-yl)-5-methyl-phenoxy]propoxy]acetic acid], the figures for the IC50 in data set [1] and in data set [2] were 2.94 µM and 492 nM, respectively. Also, the “Clearance of Human microsome” value in data set [3] was 6.15 mL/min/kg.

Consider `Cc1cc(-c2cc(=O)c3cccc(Cl)c3o2)c(OCCCOCC(=O)O)cc1Cl` [Example C019, 2-[3-[5-chloro-2-(8-chloro-4-oxo-chromen-2-yl)-4-methyl-phenoxy]propoxy]acetic acid], for which the half-maximal inhibitory concentration (IC50) is 3 µM in data set [1] and 185 nM in data set [2]. For the same compound, the “Clearance of Human microsome” value in data set [3] was found to be 6.71 mL/min/kg.

Regarding `O=c1cc(-c2ccccc2OCCO[C@H]2C[C@@H](C(=O)O)C2)oc2c(Cl)cccc12` [Example C025-A, Cis-3-[2-[2-(8-chloro-4-oxo-chromen-2-yl)phenoxy]ethoxy]cyclobutanecarboxylic acid], the figures for the half-inhibitory concentration (IC50) in data set [1] and in data set [2] were 2.58 µM and 191 nM, respectively. Also, the “Clearance of Human microsome” value in data set [3] is 6.15 mL/min/kg.

As to `O=c1cc(-c2ccccc2OCCO[C@H]2C[C@H](C(=O)O)C2)oc2c(Cl)cccc12` [Example C025-B, Trans-3-[2-[2-(8-chloro-4-oxo-chromen-2-yl)phenoxy]ethoxy]cyclobutanecarboxylic acid], the IC50 turned out to be 2.02 µM in data set [1] and 205 nM in data set [2]. Further, in data set [3], the “Clearance of Human microsome” value was 6.15 mL/min/kg.

Take `O=c1cc(-c2ccc(C(F)(F)F)cc2OCCO[C@H]2C[C@@H](C(=O)O)C2)oc2c(Cl)cccc12` [Example C026, Cis-3-[2-[2-(8-chloro-4-oxo-chromen-2-yl)-5-(trifluoromethyl)phenoxy]ethoxy]cyclobutanecarboxylic acid]: the values for the concentration for half-maximal inhibition (IC50) in data set [1] and in data set [2] were 8.95 µM and 526 nM, respectively. In data set [3], the “Clearance of Human microsome” value is 6.81 mL/min/kg.

Turning to `O=c1cc(-c2cc(F)ccc2OCCO[C@H]2C[C@@H](C(=O)O)C2)oc2c(Cl)cccc12` [Example C033-A, Cis-3-[2-[2-(8-chloro-4-oxo-chromen-2-yl)-4-fluoro-phenoxy]ethoxy]cyclobutanecarboxylic acid], the half-inhibitory concentration (IC50) in data set [1] was 1.97 µM; in data set [2] it was 1340 nM. In data set [3], the “Clearance of Human microsome” value turned out to be 6.15 mL/min/kg.

Consider `O=c1cc(-c2cc(F)ccc2OCCO[C@H]2C[C@H](C(=O)O)C2)oc2c(Cl)cccc12` [Example C033-B, Trans-3-[2-[2-(8-chloro-4-oxo-chromen-2-yl)-4-fluoro-phenoxy]ethoxy]cyclobutanecarboxylic acid], for which the figures for the half-inhibitory concentration (IC50) in data set [1] and in data set [2] were 4.33 µM and 927 nM, respectively. The “Clearance of Human microsome” value in data set [3] came to 6.15 mL/min/kg.

For the compound `O=c1cc(-c2ccc(F)cc2OCCO[C@H]2C[C@@H](C(=O)O)C2)oc2c(Cl)cccc12` [Example C034-A, Cis-3-[2-[2-(8-chloro-4-oxo-chromen-2-yl)-5-fluoro-phenoxy]ethoxy]cyclobutanecarboxylic acid], the half-inhibitory concentration (IC50) was found to be 4.69 µM in data set [1] and 526 nM in data set [2]. Besides, the “Clearance of Human microsome” value in data set [3] stood at 6.15 mL/min/kg.

With `O=c1cc(-c2ccc(F)cc2OCCO[C@H]2C[C@H](C(=O)O)C2)oc2c(Cl)cccc12` [Example C034-B, Trans-3-[2-[2-(8-chloro-4-oxo-chromen-2-yl)-5-fluoro-phenoxy]ethoxy]cyclobutanecarboxylic acid], the figures for the concentration for half-maximal inhibition (IC50) in data set [1] and in data set [2] were 9.11 µM and 1810 nM, respectively. Also, the “Clearance of Human microsome” value in data set [3] was found to be 6.75 mL/min/kg.

In the case of `O=c1cc(-c2ccccc2OCCO[C@H]2C[C@@H](C(=O)O)C2)oc2c(Cl)cc(F)cc12` [Example C036-A, Cis-3-[2-[2-(8-chloro-6-fluoro-4-oxo-chromen-2-yl)phenoxy]ethoxy]cyclobutanecarboxylic acid], the half-inhibitory concentration (IC50) in data set [1] came to 2.42 µM; in data set [2] it was 261 nM. Besides, the “Clearance of Human microsome” value in data set [3] worked out at 6.15 mL/min/kg.

In general, IC50 refers to the midpoint of a concentration-inhibition curve.

Values taken from patent publication US11708344B2, “Flavone derivatives for the treatment and prophylaxis of hepatitis B virus disease” (Hoffmann-La Roche Inc., priority 2018, dated 2023).
